Like-named read-outs stand apart in the source and are kept apart here.
Tests used:
Human D1 [1] = biological target: T1, Human D1 (Homo sapiens (Human), UniProt P21728); test: Human D1 Receptor Binding Assay ([3H]-SCH23390 competition); conditions: read-out: Human D1 Receptor Binding, Ki (μM); Geometric mean of 2-3 determinations; over-expressing LTK human cell lines, 0.5 nM [3H]-SCH23390, 30 min at 37° C.; footnote b = single determination, c = geometric mean of ≧4 determinations
Method: D1 binding assays were performed using over-expressing LTK human cell lines. […] These ligand and tissue concentrations were used in time course studies to determine linearity and equilibrium conditions for binding. […] The pellet was resuspended in assay buffer [50 mM Tris (pH 7.4@ RT) containing 4 mM MgSO4 and 0.5 mM EDTA]. […] Non-specific binding was determined by radioligand binding in the presence of a saturating concentration of (+)-Butaclamol (10 μM), a D1 antagonist. After a 30 minute incubation period at 37° C., assay samples were rapidly filtered through Unifilter-96 GF/B PEI-coated filter plates and rinsed with 50 mM Tris buffer (pH 7.4 at 4° C.). […] Ki values were calculated according to the Cheng-Prusoff equation: […]

Human D1 [2] = biological target: T1, Human D1; test: D1 cAMP HTRF Assay; format: cell-based; conditions: HEK293T/hD1#1 stable cell line, 30 min at room temperature, footnote a = geometric mean of ≧7 determinations
Source text: This assay was used to determine the ability of a test compound to agonize (including partially agonize) D1. A Mab anti-cAMP labeled Cryptate visualizes the tracer. […] The signal, therefore, is inversely proportional to the concentration of cAMP in the sample.
The cAMP Dynamic kit was obtained from Cisbio International (Cisbio 62AM4PEJ). Multidrop Combi (Thermo Scientific) was used for assay additions. An EnVision (PerkinElmer) reader was used to read HTRF.
A HEK293T/hD1#1 stable cell line was constructed internally (Pfizer Ann Arbor).
Media was removed and cell pellet was re-suspended in PBS/[…] generating 2e5 cells/mL. […] Working solutions of cAMP-D2 and anti-cAMP-cryptate were prepared according to Cisbio instructions. […] The assay plate was incubated for 1 hour at room temperature. The assay plate was read on an EnVision plate reader using Cisbio recommended settings.
Data analysis was done using computer software. Percent effects were calculated from the compound controls. Ratio EC50 was determined using the raw ratio data from the EnVision reader. The cAMP standard curve was used in an analysis program to determine cAMP concentrations from raw ratio data. cAMP EC50 was determined using the calculated cAMP data.

[3] = read-out: Human D1 cAMP HTRF, EC50 (μM), Geometric mean of 2-6 determinations

T1 sequence (P21728 whole entry): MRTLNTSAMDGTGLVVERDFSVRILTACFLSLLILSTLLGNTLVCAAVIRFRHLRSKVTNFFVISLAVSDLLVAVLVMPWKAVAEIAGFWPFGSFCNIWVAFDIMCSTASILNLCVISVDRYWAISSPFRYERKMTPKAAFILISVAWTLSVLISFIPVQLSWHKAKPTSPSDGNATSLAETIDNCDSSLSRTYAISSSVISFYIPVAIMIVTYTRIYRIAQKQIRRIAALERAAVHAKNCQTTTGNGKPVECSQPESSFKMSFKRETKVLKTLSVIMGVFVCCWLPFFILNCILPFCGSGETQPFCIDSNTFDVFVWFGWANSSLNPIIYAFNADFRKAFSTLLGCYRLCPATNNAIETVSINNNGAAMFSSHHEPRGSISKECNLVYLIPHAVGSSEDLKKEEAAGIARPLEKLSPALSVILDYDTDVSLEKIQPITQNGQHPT

| SMILES | Ki (Human D1 [1]) [µM] | EC50 (Human D1 [2]) [µM] | EC50 (Human D1 [2]; [3]) [µM] |
| --- | --- | --- | --- |
| Cc1cc(Oc2nccc3n[nH]cc23)ccc1-c1c(C)ncc(=O)n1C (single isomer, unassigned) [Example 39, (−)-1,5-dimethyl-6-[2-methyl-4-(1H-pyrazolo[4,3-c]pyridin-4-yloxy)phenyl]pyrazin-2(1H)-one] | 0.0418 | 0.168 |  |
| Cc1cc(Oc2nccc3[nH]ccc23)ccc1-c1c(C)cnn1C [Example 2, 4-[4-(1,4-dimethyl-1H-pyrazol-5-yl)-3-methylphenoxy]-1H-pyrrolo[3,2-c]pyridine] | 0.0348 | 0.355 |  |
| Cc1cc(Oc2nccc3[nH]ccc23)ccc1-c1cc(=O)[nH]nc1C [Example 29, 6-methyl-5-[2-methyl-4-(1H-pyrrolo[3,2-c]pyridin-4-yloxy)phenyl]pyridazin-3(2H)-one] | 0.0679 | 0.119 |  |
| Cc1ncc2nccn2c1-c1ccc(Oc2nccc3[nH]ccc23)cc1F [Example 18, 5-[2-fluoro-4-(1H-pyrrolo[3,2-c]pyridin-4-yloxy)phenyl]-6-methylimidazo[1,2-a]pyrazine] | 0.0294 | 0.141 |  |
| Cc1n[nH]c(=O)c(C)c1-c1ccc(Oc2nccc3[nH]ccc23)cc1 [Example 7, 4,6-dimethyl-5-[4-(1H-pyrrolo[3,2-c]pyridin-4-yloxy)phenyl]pyridazin-3(2H)-one] | 0.00412 | 0.0192 |  |
| Cc1cc(Oc2nccc3[nH]ncc23)ccc1-c1c(C)ncnc1C [Example 6, 4-[4-(4,6-dimethylpyrimidin-5-yl)-3-methylphenoxy]-1H-pyrazolo[4,3-c]pyridine] | 0.113 | 0.568 |  |
| COc1cc(Oc2nccc3[nH]ncc23)ccc1-c1c(C)ncnc1C [Example 33, 4-[4-(4,6-dimethylpyrimidin-5-yl)-3-methoxyphenoxy]-1H-pyrazolo[4,3-c]pyridine] | 0.124 | 2.08 |  |
| Cc1cc(Oc2nccc3n[nH]cc23)ccc1-c1c(C)n[nH]c(=O)c1C (single isomer, unassigned) [Example 3, (+)-4,6-dimethyl-5-[2-methyl-4-(1H-pyrazolo[4,3-c]pyridin-4-yloxy)phenyl]pyridazin-3(2H)-one] | 0.00976 | 0.0151 |  |
| Cc1cc(Oc2nccc3[nH]ccc23)ccc1-c1c(C)ncc(=O)n1C (single isomer, unassigned) [Example 27, (+)-1,5-dimethyl-6-[2-methyl-4-(1H-pyrrolo[3,2-c]pyridin-4-yloxy)phenyl]pyrazin-2(1H)-one] | 0.0106 | 0.0646 |  |
| COc1cnc(Oc2ccc(-c3c(C)n[nH]c(=O)c3C)cc2)c2cn[nH]c12 [Example 47, 5-{4-[(7-methoxy-1H-pyrazolo[4,3-c]pyridin-4-yl)oxy]phenyl}-4,6-dimethylpyridazin-3(2H)-one] | 0.695 | 1.3 |  |
| Cc1ncnc(C#N)c1-c1ccc(Oc2nccc3[nH]ncc23)cc1F [Example 35, 5-[2-fluoro-4-(1H-pyrazolo[4,3-c]pyridin-4-yloxy)phenyl]-6-methylpyrimidine-4-carbonitrile] | 0.0696 | 1.34 |  |
| Cc1ncnc(C)c1-c1ccc(Oc2nccc3[nH]ccc23)cc1Cl [Example 24, 4-[3-chloro-4-(4,6-dimethylpyrimidin-5-yl)phenoxy]-1H-pyrrolo[3,2-c]pyridine] | 0.00984 | 0.102 |  |
| Cc1cc(Oc2nccc3[nH]ccc23)ccc1-c1c(C)ncc2nccn12 [Example 14, 6-methyl-5-[2-methyl-4-(1H-pyrrolo[3,2-c]pyridin-4-yloxy)phenyl]imidazo[1,2-a]pyrazine] | 0.00798 | 0.137 |  |
| Cc1cc(Oc2nccc3n[nH]cc23)ccc1-c1c(C)ncc(=O)n1C (single isomer, unassigned) [Example 40, (+)-1,5-dimethyl-6-[2-methyl-4-(1H-pyrazolo[4,3-c]pyridin-4-yloxy)phenyl]pyrazin-2(1H)-one] | 0.0281 | 0.674 |  |
| Cc1ncnc(C)c1-c1ccc(Oc2nccc3[nH]ncc23)cc1F [Example 32, 4-[4-(4,6-dimethylpyrimidin-5-yl)-3-fluorophenoxy]-1H-pyrazolo[4,3-c]pyridine] | 0.0723 | 0.903 |  |
| Cc1cc(Oc2nccc3[nH]ccc23)ccc1-c1c(C)n[nH]c(=O)c1C (single isomer, unassigned; ent-1) [Example 9, 4,6-dimethyl-5-[2-methyl-4-(1H-pyrrolo[3,2-c]pyridin-4-yloxy)phenyl]pyridazin-3(2H)-one, ENT-1] | 0.00487 |  | 0.00733 |

| SMILES | Ki (Human D1 [1]) [µM] | EC50 (Human D1 [2]) [µM] | EC50 (Human D1 [2]; [3]) [µM] |
| --- | --- | --- | --- |
| Cc1ncnc(N2CC(F)C2)c1-c1ccc(Oc2nccc3[nH]ccc23)cc1F [Example 25, 4-{3-fluoro-4-[4-(3-fluoroazetidin-1-yl)-6-methylpyrimidin-5-yl]phenoxy}-1H-pyrrolo[3,2-c]pyridine] | 0.00509 | 0.156 |  |
| Cc1cc(Oc2nccc3[nH]ccc23)ccc1-c1c(C)cnnc1C (single isomer, unassigned; ent-2) [Example 12, 4-[4-(3,5-dimethylpyridazin-4-yl)-3-methylphenoxy]-1H-pyrrolo[3,2-c]pyridine, ENT-2] | 0.0883 |  | 0.52 |
| Cc1cc(Oc2nccc3[nH]ncc23)c(F)cc1-c1c(C)ncnc1C [Example 36, 4-[4-(4,6-dimethylpyrimidin-5-yl)-2-fluoro-5-methylphenoxy]-1H-pyrazolo[4,3-c]pyridine] | 0.118 | 0.733 |  |
| Cc1ncnc(C)c1-c1ccc(Oc2nccc3[nH]ncc23)cc1Cl [Example 37, 4-[3-chloro-4-(4,6-dimethylpyrimidin-5-yl)phenoxy]-1H-pyrazolo[4,3-c]pyridine] | 0.0523 | 0.248 |  |
| Cc1c(-c2ccc(Oc3nccc4[nH]ncc34)cc2)n(C)c(=O)[nH]c1=O [Example 43, 1,5-dimethyl-6-[4-(1H-pyrazolo[4,3-c]pyridin-4-yloxy)phenyl]pyrimidine-2,4(1H,3H)-dione] | 0.0175 | 0.0282 |  |
| Cc1ncnc(C)c1-c1ccc(Oc2nccc3[nH]ncc23)cc1C#N [Example 34, 2-(4,6-dimethylpyrimidin-5-yl)-5-(1H-pyrazolo[4,3-c]pyridin-4-yloxy)benzonitrile] | 0.391 | 2.38 |  |
| Cc1ncnc(C)c1-c1ccc(Oc2nccc3[nH]ccc23)cc1 [Example 20, 4-[4-(4,6-dimethylpyrimidin-5-yl)phenoxy]-1H-pyrrolo[3,2-c]pyridine] | 0.0443 | 0.238 |  |
| Cc1n[nH]c(=O)c(C)c1-c1ccc(Oc2nccc3[nH]nc(C)c23)cc1 [Example 45, 4,6-dimethyl-5-{4-[(3-methyl-1H-pyrazolo[4,3-c]pyridin-4-yl)oxy]phenyl}pyridazin-3(2H)-one] | 0.0103 | 0.0663 |  |
| Cc1ncnc(C)c1-c1ccc(Oc2nccc3[nH]ncc23)cc1 [Example 38, 4-[4-(4,6-dimethylpyrimidin-5-yl)phenoxy]-1H-pyrazolo[4,3-c]pyridine] | 0.129 | 2.52 |  |
| Cc1cc2[nH]ncc2c(Oc2ccc(-c3c(C)n[nH]c(=O)c3C)cc2)n1 [Example 46, 4,6-dimethyl-5-{4-[(6-methyl-1H-pyrazolo[4,3-c]pyridin-4-yl)oxy]phenyl}pyridazin-3(2H)-one] | 0.0247 | 0.0891 |  |
| Cc1cc(Oc2nccc3[nH]ccc23)ccc1-c1c(C)ncnc1C#N [Example 17, 6-methyl-5-[2-methyl-4-(1H-pyrrolo[3,2-c]pyridin-4-yloxy)phenyl]pyrimidine-4-carbonitrile] | 0.0392 | 0.374 |  |
| Cc1cc(Oc2nccc3[nH]ccc23)ccc1-c1cn[nH]c(=O)c1C [Example 28, 4-methyl-5-[2-methyl-4-(1H-pyrrolo[3,2-c]pyridin-4-yloxy)phenyl]pyridazin-3(2H)-one] | 0.0357 | 0.0549 |  |
| Cc1cc(Oc2nccc3[nH]ccc23)ccc1-c1c(C)ncnc1C [Example 5, 4-[4-(4,6-dimethylpyrimidin-5-yl)-3-methylphenoxy]-1H-pyrrolo[3,2-c]pyridine] | 0.013 | 0.146 |  |
| Cc1cc(Oc2nccc3[nH]ccc23)ccc1-c1cncc2nccn12 [Example 15, 5-[2-methyl-4-(1H-pyrrolo[3,2-c]pyridin-4-yloxy)phenyl]imidazo[1,2-a]pyrazine] | 0.0975 | 0.417 |  |
| Cc1cc(Oc2nccc3[nH]ncc23)ccc1-c1cc(=O)[nH]nc1C [Example 31, 6-methyl-5-[2-methyl-4-(1H-pyrazolo[4,3-c]pyridin-4-yloxy)phenyl]pyridazin-3(2H)-one] | 0.287 | 0.548 |  |

Source: patent US8822494B2 (Pfizer Inc., priority 2012, dated 2014)
